# From patent US20230320984A1, “TOFACITINIB-CONTAINING ANHYDROUS ELASTOMER-BASED GEL FORMULATIONS” (Vyne Therapeutics Inc., priority 2022, published 2023)
# Where two headings read alike, the source gives them in different places.
# Columns and labels:
# [1] = tested on: Human skin from cosmetic reduction surgery; assay: Skin penetration (IVPT), vertical diffusion cell (Method A); format: in vitro ADME
# Procedure: The skin is dosed with approx. 6 mg of formulation to achieve a dose of ˜ 10 mg/cm2. Receptor solution is collected at pre-determined intervals over the course of 24 hours and analyzed using a liquid chromatography with tandem mass spectrometry (LC-MS/MS) analytical method.
# Following 24 hours, the residual formulation is removed from the surface of the skin. The skin surface is tape-stripped up to five times to remove residual formulation and the top of the skin surface layers (Stratum Corneum). The epidermis is then heat-separated from the dermis. The active agent is extracted from the skin layers and the amount of active agent delivered to the epidermis and dermis is then determined by LC-MS/MS.
# [2] = human, in vivo
# Procedure: Values below the limit of concentration are omitted from determination of geometric mean and geometric % CV.
# Samples designated for analysis of fingolimod and fingolimod phosphate are collected and processed for shipment to bioanalytical laboratories. Frozen samples are thawed at room temperature and homogenized by vortexing. 10 μL of ISTD working solution (WS ISTD2 50 ng/mL in methanol/water, 50/50, V/V) is addeded to Eppendorf tubes each containing 200 sample (exception blank samples for which 10 μL of methanol/water, 50/50, V/V is added). Samples are vortexed for 5 sec and 800 μL of acetonitrile is added to each sample and vortexed for additional 10 sec. Next samples are centrifuged for 10 min at 14000 rpm at 5° C. and 900 μL is transferred to hemolyse tube. The samples are evaporated at approximately 40° C. […]
# Whole blood is analyzed for concentration of fingolimod and fingolimod phosphate using a validated analytical procedure for the simultaneous quantitation of both analytes. […] After, the analyte is separated on a Kinetex Biphenyl column (50×3.0 mm, 2.6 μm) and analyzed using electrospray ionization (ESI) tandem mass spectrometry (MS/MS) in the multiple reaction monitoring mode (MRM). […]
# [3] = Chemical stability of formulations (Method H); format: physicochemical; conditions: gel with Tofacitinib Citrate 1.0% and Fingolimod HCl 0.01% (Table 38)
# Procedure: Where another active agent such as fingolimod is present in the formulations the samples are analyzed for that active agent and its degradation products by HPLC. […] The gradient elution is employed.
# [4] = Visual solubility evaluation of Fingolimod free base; format: physicochemical; conditions: for solubility: organic solvent or mixture, thermodynamic from solid, visual, RT
# Procedure: A visual solubility evaluation of Fingolimod free base was performed.
# [5] = tested on: Reconstructed Human Epidermis (RHE) exposed to Th2 cytokines IL-4, IL-13, IL-25; assay: Reconstructed Human Epidermis Th2 model for AD efficacy (Method S); format: cell-based; conditions: 48 h
# Procedure: Reconstructed Human Epidermis (RHE) tissues are produced and grown by StratiCELL. To generate the morphological and functional aspects of AD, RHE samples are exposed to Th2 cytokines IL-4, IL-13, IL-25. Th-2 cytokines are applied for 48 h in the culture medium of epidermis. Test formulations are applied simultaneously with the cytokines on the stratum corneum of the epidermis during the same 48 h. The tissue morphology is assessed by histology and hemalum/eosin (H/E) staining—quantification of a fluorescent dye (biotin) diffusion through the epidermis in order to evaluate the barrier function.
# [6] = Human equivalent dose, safety factor and predicted exposure from the minipig NOAEL
# [7] = Toxicokinetics / pK in minipigs (Method T); conditions: day 1; tofacitinib 0.6% fingolimod 0.005% gel group
# Procedure: (§1) The animals are not fasted prior to blood collection, with the exception of the intervals that coincide with fasting for clinical pathology collections.
# (§2) If necessary, the samples are frozen on dry ice prior to being placed in the freezer. […] Samples are stored at the bioanalytical laboratories in a freezer set to maintain −80±10° C. until analysis.
# (§3) Samples designated for analysis of fingolimod and fingolimod phosphate are mixed gently, lysed with an equal volume of deionized water, vortexed for approximately 1 minute, divided into two approximately equal aliquots, transferred to uniquely labeled polypropylene tubes and frozen in a freezer set to maintain −70° C. If necessary, the samples are frozen on dry ice prior to being placed in the freezer. The samples for fingolimod analysis are shipped with a temperature monitoring device to bioanalytical laboratories. Samples are stored at the bioanalytical laboratories in a freezer set to maintain −75±15° C. until analysis.
# (§4) Whole blood is analyzed for concentration of fingolimod and fingolimod phosphate using a validated analytical procedure for the simultaneous quantitation of both analytes.
# (§5) TK samples collected on Days 49 and 56 from recovery animals in Groups 1, 2, 3, 5, and 6 are also analyzed. […]
# [8] = cited from earlier work
# [9] = tested on: S1P receptors (S1P1 and S1P3-5); conditions: cited from earlier work
# [10] = minipig, in vivo
# Procedure: as §1, §2, §3, §4, §5
# [11] = estimated from Table 43a, epidermis assumed 80 μm, skin 500 μm, density 1.0 g/cm^3
# [12] = gel with Fingolimod HCl […] (Table 42), Mean (n = 5)
# [13] = gel with Tofacitinib Citrate 1.0% and Fingolimod HCl 0.01% (Table 43a), Mean (n = 5)
molecule,measurement,setting,value
"CCCCCCCCc1ccc(CCC(N)(CO)CO)cc1 [fingolimod, 2-amino-2-[2-(4-octylphenyl)ethyl]propane-1,3-diol]","Dermis concentration, μg/g Based on the Mean (n = 5)",[1]; [11],0.6 µg/g
same,"Epidermis concentration, μg/g Based on the Mean (n = 5)",[1]; [11],3.4 µg/g
same,estimated concentration of active in dermis,[1]; formulation with 1.0% tofacitinib citrate and […] fingolimod hydrochloride,0.6 µg/mL
same,estimated concentration of active in epidermis,"[1]; formulation with 1.0% tofacitinib citrate and […] fingolimod hydrochloride, epidermis assumed 80 μm",3.4 µg/g
same,"Amount of Fingolimod recovered, % applied dose, Dermis",[1]; [12],2.59%
same,"Amount of Fingolimod recovered, % applied dose, Epidermis",[1]; [12],1.98%
same,"Amount of Fingolimod recovered, % applied dose, Receptor fluid",[1]; [12],ND (not detected (below LOQ of 0.25 ng/mL))
same,"Amount of Fingolimod recovered, ng, Dermis",[1]; [12],49.16 ^ ng
same,"Amount of Fingolimod recovered, ng, Receptor fluid",[1]; [12],ND (not detected (below LOQ of 0.25 ng/mL))
same,"Amount of Fingolimod recovered, % applied dose, Dermis",[1]; [13],1.44%
same,"Amount of Fingolimod recovered, % applied dose, Epidermis",[1]; [13],1.59%
same,"Amount of Fingolimod recovered, % applied dose, Receptor fluid",[1]; [13],ND (not detected (below LOQ of 0.25 ng/ml))
same,"Amount of Fingolimod recovered, ng, Dermis",[1]; [13],14.82 ng
same,"Amount of Fingolimod recovered, ng, Epidermis",[1]; [13],16.21 ng
same,"Amount of Fingolimod recovered, ng, Receptor fluid",[1]; [13],ND (not detected (below LOQ of 0.25 ng/ml))
same,whole blood concentrations (all below the assay LLOQ),[2],< 0.08 ng/mL
same,"Assay of Fingolimod, % LC",[3]; 2 months at 40° C.,97.2 % LC
same,"Assay of Fingolimod, % LC",[3]; 2 months at 50° C.,95.0 % LC
same,"Assay of Fingolimod, % LC",[3]; 3 weeks at 5° C.,100.3 % LC
same,"Assay of Fingolimod, % LC",[3]; 3 weeks at 40° C.,99.9 % LC
same,"Assay of Fingolimod, % LC",[3]; 3 weeks at 50° C.,94.1 % LC
same,"Assay of Fingolimod, % LC",[3]; Initial,99.9 % LC
same,visual solubility at RT,[4]; alcohols,very good solubility
same,visual solubility at RT,[4]; most of organic solvents tested,good solubility
same,solubility,[4]; Diisopropyloxide,< 1.1 mg/mL
same,solubility,[4]; Ethanol,> 20 mg/mL
same,solubility,[4]; Methanol,> 20 mg/mL
same,solubility,[4]; Toluene,< 1.7 mg/mL
same,visual solubility at RT,"[4]; water, toluene, diisopropyloxide and methyl ethyl ketone",very low soluble
same,barrier function (biotin immunofluorescence),[5]; 0.001% w/w and 0.01% w/w,reduced the Th2-induced barrier alteration
same,tissue morphology (histology),[5]; 0.001% w/w and 0.01% w/w,reduced the Th2-induced barrier alteration
same,barrier function (biotin immunofluorescence),[5]; 0.1% and 1%,Increased barrier alteration
same,tissue morphology (histology),[5]; 0.1% w/w and 1% w/w,increased fragilization was observed with junction/adhesion loss and disorganization of cell layers
same,human equivalent dose (HED),"[6]; from minipig NOAEL, minipig 10 kg, human 60 kg",2.21 mg/kg/day
same,safety factor over the NOAEL of the 6-week minipig dermal toxicity study,[6]; maximum daily application of 2 g dual active gel,669 fold
same,quantifiability in blood,[7],not quantifiable
same,solubility,"[8]; organic solvents, such as ethanol, DMSO and dimethyl formamide",soluble
same,solubility,[8]; water,sparingly soluble
fingolimod-phosphate,whole blood concentrations (all below the assay LLOQ),[2],< 0.08 ng/mL
same,affinity for four of the five S1P receptors,[9],0.3 to 3.1 nM
same,quantifiability in blood,[10],only quantifiable in the 0.2% fingolimod gel group
